Laboratory results reported in patent publication US8906953B2, “Pyrrolidine substitute flavones for the treatment of inflammatory disorders” (Piramal Enterprises Limited, priority 2010, dated 2014).

Assays:
TNF-α = test: LPS-induced TNF-α release in Balb/c mice; type: in vivo; conditions: Mus musculus, plasma 1.5 hours post LPS (1 mg/kg i.p.)
Procedure: The assay was designed as in reference, J. Med. Bio. Res., 1997, 30, 1199-1207, the disclosure of which is incorporated herein by reference for the teaching of the assay. […] All suspensions were freshly prepared in 0.5% CMC. One hour later, LPS (1 mg/kg) (Escherchia coli, serotype 0127:B8, Sigma Chemical Co., St. Louis, Mo.) dissolved in sterile pyrogen-free saline was administered intra-peritoneally to the control group, standard treatment group (Rolipram, 30 mg/kg, p.o.) and test groups (compound of example 3), except the negative control group, which received normal saline. Blood samples were collected from anesthetized mice, with heparin as an anti-coagulant (25 IU per sample) 1.5 hours post LPS challenge. […] Percent inhibition of TNF-α release was calculated by comparing the TNF-α levels of the treatment groups with those of the control group.

E-selectin = test: TNF-α induced cell surface expression of E-selectin on HUVECs; type: cell-based; conditions: Homo sapiens, HUVEC; TNF-α (1 ng/mL) stimulated HUVECs, 6 hours, n=2
Procedure: The assay was designed as in reference, Transplantation, 1997, 63(5), 759-764, the disclosure of which is incorporated herein by reference for the teaching of the assay.
Human umbilical vein endothelial cells (HUVECs) were obtained from Cascade Biologics (Oregon-USA). Cells were cultured in M-200 medium (Cascade Biologics) supplemented with low serum growth supplements (LSGS) (Cascade Biologics), penicillin-G (100 U/mL), streptomycin (100 μg/mL) and amphotericin B (50 ng/mL) (GIBCO). […] After TNF-α stimulation (1 ng/mL) (R&D Systems (Minneapolis, Minn.)) for 4 hours at 37° C. in an atmosphere of 5% CO2, supernatants were harvested and assayed for the expression of ICAM-1 (intercellular cell adhesion molecules), whereas the expressions of VCAM-1 (vascular cell adhesion molecules) and E-selectin were evaluated after 6 hours of stimulation. […] To quantitatively measure the amount of cell surface expressions of ICAM-1, VCAM-1 and E-selectin, ELISA assay was performed using anti-ICAM-1 (clone BBIG-I1), anti-VCAM-1 (clone BBIG-V1), anti-E-selectin (clone BBIG-E4) antibodies, isotype control mouse IgG1 (clone 11711.11) and the secondary antibody (anti-mouse IgG-HRP antibody) which were procured from R&D Systems (Minneapolis, Minn., USA). […]

IL-1β = test: LPS-induced IL-1β release from hPBMCs (ELISA); type: cell-based; conditions: Homo sapiens
Procedure: Cytokine production by lipopolysaccharides (LPS) in hPBMCs (human peripheral blood mononuclear cells) was measured as in reference, Physiol. Res. 2003, 52, 593-598, the disclosure of which is incorporated by reference for the teaching of the assay. Blood was collected from healthy donors into Potassium EDTA vacutainer tubes (BID vacutainer). The PBMC were isolated using gradient centrifugation in Histopaque-1077 solution (Sigma). Isolated PBMC were suspended in RPMI 1640 (Rosewell Park Memorial Institute) culture medium (Sigma-Aldrich Fine Chemicals, USA) containing 10% fetal bovine serum (FBS) (JRH, USA), 100 U/mL penicillin (Sigma Chemical Co. St Louis, Mo., USA) and 100 μg/mL streptomycin (Sigma Chemical Co. St Louis, Mo.). The cell concentration was adjusted to 1×10^6 cells/mL. The viability as determined by trypan blue dye exclusion was uniform Ly≧98%. The cell suspension (100 μL) was added to the wells of a 96-well culture plate. Following cell plating, 79 μL of the culture medium and 1 μL of various concentrations of test compounds (compounds of formula 1) (final concentration 0.001, 0.003, 0.005, 0.01, 0.025, 0.03, 0.05, 0.1, 0.25, 0.3 and 1 μM) dissolved in DMSO (dimethyl sulfoxide, Sigma, Mo., USA) were added to the cells. The final concentration of DMSO was adjusted to 0.5%. The vehicle (0.5% DMSO) was used as control. […]

IC50 (E-selectin): 0.65 µM
IC50 (IL-1β): 0.1 µM
SMILES: CN1CC[C@@H](c2c(O)cc(O)c3c(=O)cc(-c4ccc(C(F)(F)F)cc4Cl)oc23)[C@@H]1CO.Cl [Compound of example 3, (+)-trans-2-(2-Chloro-4-trifluoromethyl-phenyl)-5,7-dihydroxy-8-(2-hydroxymethyl-1-methyl-pyrrolidin-3-yl)-chromen-4-one hydrochloride]
inhibition at 12.5 mg/kg (TNF-α; 12.5 mg/kg oral): 53.2 ± 12.5%
inhibition at 25 mg/kg (TNF-α; 25 mg/kg oral): 66.8 ± 11.5%
inhibition at 50 mg/kg (TNF-α; 50 mg/kg oral): 82 ± 4.88%
inhibition at 75 mg/kg (TNF-α; 75 mg/kg oral): 77.3 ± 8.61%
inhibition at 100 mg/kg (TNF-α; 100 mg/kg oral): 92.6 ± 3.5%
